# Values joined by “and” are separate entries in the source; they are usually repeats but may differ in a detail not shown here. Equal entries are not always repeated. Where two headings read alike, the source gives them in different places.
# What was measured:
# Male ICR mice = test: Mice tail suspension test; assay type: in vivo
# Excerpt: (§1) The following method is used for testing the antidepression effect of the compound of the present application. ICR mice or SD rats, gavaged for two successive weeks, were subjected to mice swimming test, mice tail suspension test and rats swimming test. See below for details of the tests and results.
# The animals, medicaments, calculation of dosages to the mice, preparation of drug solution and apparatus are the same as those in the mice swimming test.
# The medicaments were correspondingly administered by gavage, once a day, to the animals in the groups for 14 successive days, with the amount of 0.2 ml per 10 g of body weight. The mice were subjected to tail suspension one hour later after the last oral administration. The suspension continued for 6 min.
# (§2) The data was given as “average±standard deviation” (x±s). One-way analysis of variance (ANOVA) was used for data difference statistics. Differences among the groups were determined by P<0.05.
# Male SD rats = test: Rats swimming test; assay type: in vivo
# Excerpt: as §1
# Male SD rats weighing 200 to 220 g were used and they were fed with sterilized standard feed. The medicaments were the same as those in the mice tail suspension test, but the dosage administered to rats was half of that to mice.
# Drug solution preparation: Since the dosage applied on rats was 1 ml/100 g body weight, the medicament solutions used in this test had the same concentrations as those used on mice.
# The apparatus was the same as that in the […].
# The rats were fasted for 4 hours, put in a round glass tank (ø 18 cm×h 40 cm, with water of 15 cm depth and at a temperature of 25° C.), and were allowed to swim for 15 min. One tank accommodated one rat at a time. The tank was refilled with clean water for another rat after one rat finished swimming. The rats were dried with a hot-air blower after swimming.
# The forty rats were divided into 4 groups, each of which has 10 rats, according to the Excel random grouping.
# The medicaments were correspondingly administered 1 ml/100 g body weight by gavage, once a day, to the animals in each test group for 14 successive days. The rat swimming test was performed one hour later after the last administration.
# as §2
# [1] = Pharmacokinetic test in rats, gavage administration; assay type: in vivo, SD rats; details: for bioavailability: read-out: F % (absolute bioavailability), Mean ± SD;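 for AUC0-t (area under the plasma concentration-time curve from zero to the last sampling time): plasma area under the curve AUC0-1 in μg·h/L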
# Method: The preferred compound of the present disclosure was assessed in rats for its pharmacokinetic profile.
# SD rats, male and female, weighing 150 to 250 g
# Mobile phase: 10 mM ammonium formate aqueous solution:methanol=15:85
# The ionization source was electrospray ionization source. The detection mode was positive mode. Multiple reaction monitoring (MRM) was used as the scanning mode. The ion reaction for the quantitative analysis was the following: m/z was 305.2\150.0 for XX, and 256.1\167.1 for diphenhydramine (the internal standard).
# XX or YY was orally administered with single dose of 20 mg/kg to six SD rats, one half of which were male and the other half was female. XX or YY was dissolved in 10% hydroxypropyl-β-cyclodextrin. […]
# After the blood collection, the tubes were immediately gently turned upside down at least five times to ensure sufficient mixing, and placed on ice. Heparin was added for anticoagulation. The samples were centrifuged at 8000 rpm for 5 min to separate serum from erythrocyte. The serum was transferred with a pipettor to 2 mL polypropylene (PP) tubes, which were marked with the name of the compound and the time points, and stored in a refrigerator at −40° C. before LC-MS analysis. Samples with high concentrations were diluted with rat blank plasma.
# 2.5 μL of Meth-H2O and 5 μL of the internal standard solution (20 ng/mL, IS) were added to 50 μL of the plasma. Subsequently, 150 μL of methanol was added to the mixture to precipitate protein and the samples were then centrifuged at 13000 rpm for 5 min. The upper organic phase was taken out, filtrated with a 0.22 μM microporous membrane, and 2 μL of the sample was injected for the LC-MS analysis.
# [2] = rats, oral 20 mg/kg, individual rats 1-6, 20 mg/kg
smiles,measurement,setting,value
"Cc1ccc(Sc2ccccc2N2CCNCC2)c(C)c1 [YY, 1-[2-(2,4-dimethyl-phenylsulfanyl)-phenyl]piperazine]",effect on length of time that the tail-suspended mice stopped moving vs blank control,"Male ICR mice; 3 mg/kg gavage, two successive weeks",did not shorten
same,Duration without Move within 6 min,"Male ICR mice; mice tail suspension, gavage 14 days, 3 mg/kg, n = 10, x ± s",284.9 ± 51.2 s
same,effect on length of time that the rats stopped swimming vs blank control,"Male SD rats; 1.5 mg/kg gavage, 14 days",did not shorten
same,Duration without Move within 5 min,"Male SD rats; rats swimming, gavage 14 days, 1.5 mg/kg, n = 10, x ± s",267.8 ± 27.0 s
same,Concentrations in Plasma of Rats after Oral Administration,"[1]; 20 mg/kg oral, 10 min (Table 5: 0.167 h) after administration, individual rats 1-6",17.9 ng/mL and 9.42 ng/mL and 28.1 ng/mL and 14.3 ng/mL and 38.4 ng/mL and 6.11 ng/mL
same,Concentrations in Plasma of Rats after Oral Administration,"[1]; 20 mg/kg oral, 0.5 h, individual rats 1-6",86.5 ng/mL and 38.1 ng/mL and 52.3 ng/mL and 49.7 ng/mL
same,Concentrations in Plasma of Rats after Oral Administration,"[1]; 20 mg/kg oral, 1 h, individual rats 1-6",123 ng/mL and 65.5 ng/mL and 77.4 ng/mL and 81.1 ng/mL and 93.2 ng/mL and 55.6 ng/mL
same,Concentrations in Plasma of Rats after Oral Administration,"[1]; 20 mg/kg oral, 1.5 h, individual rats 1-6",154 ng/mL and 85.2 ng/mL and 82.9 ng/mL and 89.2 ng/mL and 73.2 ng/mL and 54.9 ng/mL
same,Concentrations in Plasma of Rats after Oral Administration,"[1]; 20 mg/kg oral, 2 h, individual rats 1-6",182 ng/mL and 68.3 ng/mL and 91.8 ng/mL and 81.9 ng/mL and 72 ng/mL and 56.4 ng/mL
same,Concentrations in Plasma of Rats after Oral Administration,"[1]; 20 mg/kg oral, 3 h, individual rats 1-6",120 ng/mL and 48.2 ng/mL and 58.3 ng/mL and 55.9 ng/mL and 42.9 ng/mL and 34.2 ng/mL
same,Concentrations in Plasma of Rats after Oral Administration,"[1]; 20 mg/kg oral, 4 h, individual rats 1-6",93.6 ng/mL and 46.9 ng/mL and 52.9 ng/mL and 55.2 ng/mL and 42.1 ng/mL and 29.9 ng/mL
same,Concentrations in Plasma of Rats after Oral Administration,"[1]; 20 mg/kg oral, 6 h, individual rats 1-6",57.4 ng/mL and 37.7 ng/mL and 36.7 ng/mL and 33.5 ng/mL and 30.5 ng/mL and 22.4 ng/mL
same,Concentrations in Plasma of Rats after Oral Administration,"[1]; 20 mg/kg oral, 8 h, individual rats 1-6",27.5 ng/mL and 16.7 ng/mL and 17.7 ng/mL and 16.3 ng/mL and 18.8 ng/mL and 11.3 ng/mL
same,Concentrations in Plasma of Rats after Oral Administration,"[1]; 20 mg/kg oral, 10 h, individual rats 1-6",14.5 ng/mL and 8.39 ng/mL and 10.9 ng/mL and 8.32 ng/mL and 9.4 ng/mL and 7.24 ng/mL
same,Concentrations in Plasma of Rats after Oral Administration,"[1]; 20 mg/kg oral, 12 h, individual rats 1-6",7.3 ng/mL and 4.87 ng/mL and 4.29 ng/mL and 7.01 ng/mL and 4.1 ng/mL and 3.17 ng/mL
same,Concentrations in Plasma of Rats after Oral Administration,"[1]; 20 mg/kg oral, 14 h, individual rats 1-6",7.19 ng/mL and 2.5 ng/mL and 3.69 ng/mL and 4.35 ng/mL and 3.79 ng/mL and 2.95 ng/mL
same,Concentrations in Plasma of Rats after Oral Administration,"[1]; 20 mg/kg oral, 24 h, individual rats 1-6",0.728 ng/mL and 0.431 ng/mL and 0.716 ng/mL and 0.374 ng/mL and 0.394 ng/mL and 1.21 ng/mL
same,MRT inf,"[1]; both sexes, SD, rat, plasma, po, 20 mg/kg, rats, oral 20 mg/kg, individual rats 1-6, read-out: MRT0-∞",4.49 h
same,half-life,"[1]; both sexes, SD, rat, plasma, po, 20 mg/kg, rats, oral 20 mg/kg, individual rats 1-6, read-out: t1/2 (converted)",3.05 h
same,AUC(0-t),"[1]; both sexes, SD, rat, plasma, po, 20 mg/kg, rats, oral 20 mg/kg, n = 6, read-out: AUC0-1, Mean ± SD",489 ± 180 ng·h/mL
same,AUC(0-inf),"[1]; both sexes, SD, rat, plasma, po, 20 mg/kg, rats, oral 20 mg/kg, n = 6, read-out: AUC0-∞, Mean ± SD",491 ± 181 ng·h/mL
same,Cmax,"[1]; both sexes, SD, rat, plasma, po, 20 mg/kg, rats, oral 20 mg/kg, n = 6, read-out: Cmax, Mean ± SD",99.6 ± 42.6 ng/mL
same,MRT inf,"[1]; both sexes, SD, rat, plasma, po, 20 mg/kg, rats, oral 20 mg/kg, n = 6, read-out: MRT0-∞, Mean ± SD",4.75 ± 0.31 h
same,half-life,"[1]; both sexes, SD, rat, plasma, po, 20 mg/kg, rats, oral 20 mg/kg, n = 6, read-out: t1/2, Mean ± SD (converted)",2.96 ± 0.43 h
same,concentration at 10 min,"[1]; both sexes, Sprague-Dawley, rat, plasma, oral, 20 mg/kg, 20 mg/kg oral, 10 min (Table 5: 0.167 h), mean of 6 rats, read-out: Concentrations in Plasma of Rats after Oral Administration, Mean ± SD",19 ± 12.2 ng/mL
same,concentration at 0.5 h,"[1]; both sexes, Sprague-Dawley, rat, plasma, oral, 20 mg/kg, 20 mg/kg oral, 0.5 h, mean of 6 rats, read-out: Concentrations in Plasma of Rats after Oral Administration, Mean ± SD",54.9 ± 16.8 ng/mL
same,concentration at 1 h,"[1]; both sexes, Sprague-Dawley, rat, plasma, oral, 20 mg/kg, 20 mg/kg oral, 1 h, mean of 6 rats, read-out: Concentrations in Plasma of Rats after Oral Administration, Mean ± SD",82.6 ± 23.6 ng/mL
same,concentration at 1.5 h,"[1]; both sexes, Sprague-Dawley, rat, plasma, oral, 20 mg/kg, 20 mg/kg oral, 1.5 h, mean of 6 rats, read-out: Concentrations in Plasma of Rats after Oral Administration, Mean ± SD",89.9 ± 33.7 ng/mL
same,concentration at 2 h,"[1]; both sexes, Sprague-Dawley, rat, plasma, oral, 20 mg/kg, 20 mg/kg oral, 2 h, mean of 6 rats, read-out: Concentrations in Plasma of Rats after Oral Administration, Mean ± SD",92.1 ± 45.7 ng/mL
same,concentration at 3 h,"[1]; both sexes, Sprague-Dawley, rat, plasma, oral, 20 mg/kg, 20 mg/kg oral, 3 h, mean of 6 rats, read-out: Concentrations in Plasma of Rats after Oral Administration, Mean ± SD",59.9 ± 30.7 ng/mL
same,concentration at 4 h,"[1]; both sexes, Sprague-Dawley, rat, plasma, oral, 20 mg/kg, 20 mg/kg oral, 4 h, mean of 6 rats, read-out: Concentrations in Plasma of Rats after Oral Administration, Mean ± SD",53.4 ± 21.6 ng/mL
same,concentration at 6 h,"[1]; both sexes, Sprague-Dawley, rat, plasma, oral, 20 mg/kg, 20 mg/kg oral, 6 h, mean of 6 rats, read-out: Concentrations in Plasma of Rats after Oral Administration, Mean ± SD",36.4 ± 11.7 ng/mL
same,concentration at 8 h,"[1]; both sexes, Sprague-Dawley, rat, plasma, oral, 20 mg/kg, 20 mg/kg oral, 8 h, mean of 6 rats, read-out: Concentrations in Plasma of Rats after Oral Administration, Mean ± SD",18.1 ± 5.3 ng/mL
same,concentration at 10 h,"[1]; both sexes, Sprague-Dawley, rat, plasma, oral, 20 mg/kg, 20 mg/kg oral, 10 h, mean of 6 rats, read-out: Concentrations in Plasma of Rats after Oral Administration, Mean ± SD",9.79 ± 2.62 ng/mL
same,concentration at 12 h,"[1]; both sexes, Sprague-Dawley, rat, plasma, oral, 20 mg/kg, 20 mg/kg oral, 12 h, mean of 6 rats, read-out: Concentrations in Plasma of Rats after Oral Administration, Mean ± SD",5.12 ± 1.67 ng/mL
same,concentration at 14 h,"[1]; both sexes, Sprague-Dawley, rat, plasma, oral, 20 mg/kg, 20 mg/kg oral, 14 h, mean of 6 rats, read-out: Concentrations in Plasma of Rats after Oral Administration, Mean ± SD",4.08 ± 1.66 ng/mL
same,concentration at 24 h,"[1]; both sexes, Sprague-Dawley, rat, plasma, oral, 20 mg/kg, 20 mg/kg oral, 24 h, mean of 6 rats, read-out: Concentrations in Plasma of Rats after Oral Administration, Mean ± SD",0.64 ± 0.32 ng/mL
same,bioavailability,"[1]; both sexes, Sprague-Dawley, rat, plasma, oral, 20 mg/kg, rats, oral 20 mg/kg vs iv 2 mg/kg, n = 6",7.51 ± 2.77%
same,AUC(0-t),"[1]; both sexes, Sprague-Dawley, rat, plasma, po, 20 mg/kg, gavage administration of 20 mg/kg, rats, read-out: AUC0-t in the rats' plasma",489 ± 180 ng·h/mL
same,bioavailability,"[1]; both sexes, Sprague-Dawley, rat, plasma, po, 20 mg/kg, rats, oral 20 mg/kg vs iv 2 mg/kg, n = 6",7.51 ± 2.77%
same,F %,"[1]; rats, oral 20 mg/kg vs iv 2 mg/kg, individual rats 1-6",12.83% and 6.36% and 7.40% and 7.17% and 6.55% and 4.75%
same,AUC0-t (area under the plasma concentration-time curve from zero to the last sampling time),[1]; [2],836.1 ng·h/mL and 415.8 ng·h/mL and 480.4 ng·h/mL and 467.8 ng·h/mL and 427.0 ng·h/mL and 309.2 ng·h/mL
same,AUC0-∞,[1]; [2],839.3 ng·h/mL and 416.2 ng·h/mL and 484 ng·h/mL and 469.3 ng·h/mL and 428.7 ng·h/mL and 310.6 ng·h/mL
same,Cmax,[1]; [2],182.0 ng/mL and 85.2 ng/mL and 91.8 ng/mL and 89.2 ng/mL and 93.2 ng/mL and 56.4 ng/mL
same,MRT0-∞,[1]; [2],4.65 h and 4.73 h and 4.67 h and 4.60 h and 5.35 h
same,t1/2,[1]; [2],2.20 h and 3.50 h and 2.83 h and 3.06 h and 3.10 h
